Measurements reported in US10195245B2, “Tetrapeptides derived from human C-X-C chemokines useful for treatment of various skin conditions” (Helix Biomedix, Inc., priority 2013, dated 2019).
Entries after “also recorded” stand apart in the source; their conditions may differ. Marks after values point to notes of the source that are not given here. Where a SMILES comes first, the peptide text is derived from it.

What was measured:
Assay type in all cases: cell-based
[1] = MTT cytotoxicity test on keratinocytes; details: human, normal human epidermal keratinocytes, 50 to 500 μg/ml tested
Experimental: C-X-C chemokines are well known for their chemotactic activity toward many cell types. […] The experiment was performed in the serum-free keratinocyte growth medium in the absence of supplement in order to restrain cells proliferation. The wounded area was examined by phase-contrast microscopy at the indicated times. […] At 20 μg/ml, the percentage of wound closure induced by SEQ IDs 1, 2, 3, 4, 5, 6 and 7 ranges from 165% to 240% compared to that of PBS treated which was taken as 100% (Table 1). […] To confirm that the peptides are not toxic to the keratinocytes at the concentrations tested for scratch wound closure all peptides were subjected to the MTT cytotoxicity test. None of the peptides were cytotoxic to normal skin keratinocyte in vitro after 24 hrs incubation at concentrations up to 500 ug/ml.
To make sure the peptides are not cytotoxic to the cells, normal human epidermal keratinocytes were seeded to a 96-well plate. The plate was incubated at 37° C. in the presence of 5% CO2 to allow the cells to grow to >95% confluent. Peptides are diluted into stock solutions at concentrations of 50, 100, 200, and 500 μg/ml. The cell culture media are replaced with fresh media containing peptides at various concentrations then incubated at 37° C. and 5% CO2 for 24 hr. At the end of treatment the cell viability was measured using MTT assay kit purchased from ATCC (Manassas Va.).

[2] = tested on: S. aureus LTA induced IL-6 expression on human skin keratinocytes; test: Blocking LTA induced IL-6 expression (ELISA); details: LTA 10 ug/ml pre-incubated with peptide 50 μg/ml 30 min, 24 hrs
Text: The Gram-positive cell wall component peptidoglycan (PGN) is well known to stimulate pro-inflammatory cytokine expression. Lipoteichoic acid (LTA) is the key molecule in PGN that causes a concentration- and time-dependent increase in pro-inflammatory signals including nitric oxide synthase (iNOS), cyclooxygenase-2 (COX-2), IL-1 beta, TNF-alpha and IL-6 up-regulation (Lin et al., 2010). We therefore pretreated LTA with the inventive peptides and then assess the IL-6 stimulatory activity upon contact with human skin keratinocytes. […] It is very likely that the positively charged residues of the tetrapeptides bind to the negatively charged LTA thus blocking the interaction of LTA with its receptors. This is significant as bacterial cell wall components have been implicated in inflammatory skin conditions such as acne, rosacea, atopic dermatitis etc.
S. aureus LTA induced IL-6 stimulation on human epidermal keratinocytes. Human keratinocytes were grown to >80% confluence in serum free keratinocyte cultural media. S. aureus LTA 10 ug/ml was pre-incubated with each peptide (50 μg/ml) at room temperature for 30 min then the mixture was transferred to keratinocyte culture. The treatment was allowed for 24 hrs. The supernatant was removed. […]

[3] = tested on: human umbilical vein endothelial cells (HUVEC); test: In vitro angiogenesis assay (capillary tube formation); parameters: key to Promote tube formation 3 hrs / Promote tube formation 5 hrs: 0: Individual cells, well separated; 1: Cells begin to migrate and align themselves; 2: Capillary tubes visible, no sprouting; 3: Sprouting of new capillary tubes visible; 4: Closed polygons begin to form; 5: Complex mesh like structures develop
Text: Angiogenesis, the formation of new capillaries from the pre-existing vascular network, is an essential step of wound repair. The peptides generated in the current invention, SEQ ID NOs 1-7, also stimulate capillary tube formation. The in vitro angiogenesis assay uses human umbilical vein endothelial cells (HUVEC) to measurer a series of events that lead to forming new capillary tubes. Upon induction, the HUVEC undergoes migration to align then sprouting from individual cells. The sprouting event leads to formation of new capillary tubes which further develop to form closed polygons. Eventually a complex mesh like structure is developed. Human cathelicidin peptide, LL-37, is a well-studied example to promote angiogenesis. It is used as positive control in the assessment. […] Compared to LL-37, SEQ ID NOs.
The angiogenesis assay was performed using the In Vitra Angiogenesis Assay Kit purchased from Millipore. Briefly, matrix layer was prepared with ECMATRIX™ solution according to the manufacturer's instructions. The human umbilical vein endothelial cells (HUVEC) (ATCC, Manassas, Va.) were cultured in complete F12K medium (ATCC, Manassas, Va.) supplemented with 0.1 mg/ml of heparin (Sigma-Aldrich), 30 ug/ml of ECGS (Sigma-Aldrich) and 10% fetal bovine serum (ATCC, Manassas, Va.). The cells were harvested and resuspended in complete media. The peptide was mixed with cells at approximately 5×10^3-1×10^4 cells per well in a 96-well plate prior to seeding cells onto the surface of the polymerized ECMATRIX™ solution. The plate was incubated at […], 5% CO2 for up to 9-12 hr. Tube formation was inspected under an inverted light microscope periodically and pictures were taken at 3 and 5 hr intervals and assigned a numerical value to each pattern as shown below.

[4] = tested on: SOR-300-FT human psoriasis tissue construct; test: qPCR gene expression on SOR-300-FT psoriasis tissue
Text: SOR-300-FT, developed by MatTek Corporation (Ashland Mass.), is a highly differentiated in vitro psoriasis tissue comprised of normal, human-derived keratinocytes and psoriatic fibroblasts Morphologically, the tissue is of uniform thickness and it expresses increased levels of hyperproliferated cells as well as pro-inflammatory markers such as psoriasin, elafin, human beta-defensin-2, and LL-37 etc (Ayehunie et al., 2012). The pro-inflammatory condition of the tissue prompts us to test the inventive peptides to see if they modulate the inflammatory response. Due to the high cost of the tissue model, a representative peptide SEQ ID NO 1, HB2233, was selected as a proof of concept study using SOR-300-FT tissue model. The SOR-300-FT tissues were treated with HB2233 in duplicate at 200 μg/ml. Total 12 gene markers associated with psoriasis condition are studied. […] Both HB2233 and calcipotriol down-regulate Ki67 expression which is responsible for the hyperproliferation and early maturation of keratinocytes in psoriasis skin.
SOR-300-FT™ tissues were transferred to 6-well plates containing 0.9 ml of pre-warmed assay medium and equilibrated to standard culture conditions (37° C., 5% CO2) for 1 hour. After the 1 hr equilibration, the tissues were re-fed with fresh medium as follow: 1) for the 24 hr time point, tissues were feed with 0.9 ml of medium and 2) for time points >24 hr, tissues were feed with 5 ml of culture medium by placing the cell culture inserts on top of the washers (Part # EPI-WSHR, MatTek Corporation). Next, 50 μl of the test articles were applied topically to the psoriatic tissues (n=3) and the test article was added to the culture medium at the 3 concentrations chosen by the Sponsor. At times 24, and 48 hours: a) the tissues were rinsed topically 3× with 300-400 μL of PBS, b) the inserts containing the tissues were held tightly with sterile forceps and the test article was rinsed gently by immersing the insert into PBS and decant medium from insert, and c) fresh test article was re-applied to the tissue immediately after rinsing and decanting (50 μL topically). Analysis was performed at t=72 hr (3× repeat applications). cDNA was generated using the Qiagen RT2 First Strand Kit (cat#330401). Relative gene expression was measured using Qiagen RT2 SYBR Green qPCR Mastermix (cat#330502) and Qiagen RT2 primers. Analysis was carried out using Bio-Rad CFX software.

[5] = 72 hr, HB2233 at 200 μg/ml, listed as calcipotriol

## CC[C@H](C)[C@H](N)C(=O)N[C@@H](CCC(=O)O)C(=O)N[C@@H](CCCCN)C(=O)N[C@@H](CCSC)C(=O)O [HB2233, IEKM] (H-IEKM-OH)
[1]
  CC50 at 24 h: > 500 µg/mL

## Lipoteichoic acid [LTA alone]
[2]
  IL-6 expression (arbitrary): 1.248 arbitrary

## CC[C@H](C)[C@H](N)C(=O)N[C@@H](CCCCN)C(=O)N[C@@H](CCCCN)C(=O)N[C@@H](CC(C)C)C(=O)O [HB2274, IKKL] (H-IKKL-OH; N-terminus and C-terminus assumed)
[1]
  CC50 at 24 h: > 500 µg/mL

## CC[C@H](C)[C@H](N)C(=O)N[C@@H](CCCCN)C(=O)N[C@@H](CCCCN)C(=O)N[C@@H](Cc1c[nH]c2ccccc12)C(=O)O [HB2272, IKKW] (H-IKKW-OH; N-terminus and C-terminus assumed)
[1]
  CC50 at 24 h: > 500 µg/mL

## CC[C@H](C)[C@H](N)C(=O)N[C@@H](CCC(=O)O)C(=O)N[C@@H](CCCCN)C(=O)N[C@H](C(=O)O)[C@@H](C)CC [HB2270, IEKI] (H-IEKI-OH; N-terminus and C-terminus assumed)
[1]
  CC50 at 24 h: > 500 µg/mL

## CC[C@H](C)[C@H](N)C(=O)N[C@@H](CCCCN)C(=O)N[C@@H](CCCCN)C(=O)N[C@H](C(=O)O)C(C)C [HB2273, IKKV] (H-IKKV-OH; N-terminus and C-terminus assumed)
[1]
  CC50 at 24 h: > 500 µg/mL

## LL-37 (LLGDFFRKSKEKIGKEFKRIVQRIKDFLRNLVPRTES; Antibacterial peptide LL-37; UniProt P49913 134-170, looked up) [Human cathelicidin peptide, used as positive control to promote angiogenesis]
[3]; 3 and 5 hr treatment
  capillary tube formation on HUVEC (in words): sprouting of new capillary tubes becomes visible just after 3 hr; also recorded: After 5 hr treatment with LL-37, the closed polygons are formed; also recorded: also stimulate angiogenesis
[3]; 3 hrs, values ≥3 considered significant induction of angiogenesis
  Promote tube formation 3 hrs: 3*
[3]; 5 hrs, values ≥3 considered significant induction of angiogenesis
  Promote tube formation 5 hrs: 4*

## CC[C@H](C)[C@H](N)C(=O)N[C@@H](CCC(N)=O)C(=O)N[C@@H](CCCCN)C(=O)N[C@H](C(=O)O)[C@@H](C)CC [HB2271, IQKI] (H-IQKI-OH; N-terminus and C-terminus assumed)
[1]
  CC50 at 24 h: > 500 µg/mL

## C=C1/C(=C\C=C2/CCC[C@]3(C)[C@@H]([C@H](C)/C=C/[C@@H](O)C4CC4)CC[C@@H]23)C[C@@H](O)C[C@@H]1O [Calcipotriol, calcipotriol]
[4]; 72 hr treatment, qPCR
  downregulation of HBD-2: 9.0 fold
  downregulation of psoriasin: 2.3 fold
[4]; 72 hr, HB2233 at 200 μg/ml
  Fold change in gene expression: Calgranulin C: −1.3 fold
  Fold change in gene expression: ENA-78: 1.6 fold
  Fold change in gene expression: Elafin: −1.4 fold
  Fold change in gene expression: GRO alpha: 1.3 fold
  Fold change in gene expression: HBD-2: −9.0 fold
  Fold change in gene expression: IL-8: 1.3 fold
  Fold change in gene expression: Ki-67: −1.1 fold
  Fold change in gene expression: LL-37: 5.1 fold
  Fold change in gene expression: P63: −1.4 fold
  Fold change in gene expression: Psoriasin: −2.3 fold
  Fold change in gene expression: SLPI: 2.1 fold
  Fold change in gene expression: Transglutaminase: 1.5 fold
[4]; [5]
  Fold change in gene expression: ENA-78: does not seem to affect
  Fold change in gene expression: GRO alpha: does not seem to affect
  Fold change in gene expression: Ki-67: down-regulate

## CC(C)[C@H](N)C(=O)N[C@@H](CCC(=O)O)C(=O)N[C@@H](CCCCN)C(=O)N[C@@H](Cc1ccccc1)C(=O)O [HB2267, VEKF] (H-VEKF-OH; N-terminus and C-terminus assumed)
[1]
  CC50 at 24 h: > 500 µg/mL
